Format in all cases: nucleic-acid assay
Assay [1] has as its system microRNA 21. In words: Inhibition of Dicer mediated [32P] pre-miRNA-21 (unknown origin) maturation assessed as cleavage of pre-miRNA at 1000 uM after 2.5 hrs by denaturating polyacrylamide gel electrophoresis.
A further assay relates to Pre-miRNA-29b. In words: Inhibition of Dicer mediated [32P] pre-miRNA-29b-1 (unknown origin) maturation assessed as cleavage of pre-miRNA at 1 mM after 2.5 hrs by denaturating polyacrylamide gel electrophoresis.
Assay [2] deals with microRNA 21. The assay is described as follows: Inhibition of Dicer mediated [32P] pre-miRNA-21 (unknown origin) maturation assessed as cleavage of pre-miRNA after 2.5 hrs by denaturating polyacrylamide gel electrophoresis.
The subject of assay [3] is microRNA 21. In words: Inhibition of Dicer mediated [32P] pre-miRNA-21 (unknown origin) maturation assessed as cleavage of pre-miRNA at 50 uM after 2.5 hrs by denaturating polyacrylamide gel electrophoresis.
The test system of assay [4] is microRNA 21. The assay is described as follows: Binding affinity to [32P]pre-miRNA-21(unknown origin) assessed as reduction in mobility by electrophoretic mobility shift assay.
Assay [5] has as its system microRNA 21. The assay is described as follows: Inhibition of Dicer mediated [32P] pre-miRNA-21 (unknown origin) maturation assessed as cleavage of pre-miRNA at 10 uM after 2.5 hrs by denaturating polyacrylamide gel electrophoresis.
In assay [6] the test system is microRNA 21. The assay is described as follows: Inhibition of Dicer mediated [32P] pre-miRNA-21 (unknown origin) maturation assessed as cleavage of pre-miRNA at 1 to 100 uM after 2.5 hrs by denaturating polyacrylamide gel electrophoresis.

The source made the active and inactive calls. The rule behind the calls is not given here. Numbered stars: 1 amine (or outer) side, 2 acyl side, 3 side chain; on linkers, the order of the positions; unused ones are H or OH. Square brackets hold non-standard residues; d marks the D form. Peptide text beside a SMILES is read from it. * marks the point of attachment. X6 = O=C1Cc2ccc(OCc3cn(N([C@@H](CS)C(=O)[*:2])[*:1])nn3)cc2C(=O)N1O; X3 = O=C1Cc2ccc(OCc3cn(N(CC(=O)[*:2])[*:1])nn3)cc2C(=O)N1O; X4 = C[C@@H](O)[C@@H](C(=O)[*:2])N(n1cc(CN[*:3])nn1)[*:1]; X7 = O=C([C@H](CS)N(n1cc(CCCC(=O)[*:3])nn1)[*:1])[*:2]; X1 = O=C([C@H](CS)N(n1cc(CN[*:3])nn1)[*:1])[*:2]; X5 = C[C@@H](C(=O)[*:2])N(n1cc(CN[*:3])nn1)[*:1]; X8 = O=C(NCCOCCOCCN*)c1ccc2c(c1)C(=O)N(O)C2=O; X2 = O=C1c2ccc(C(=O)*)cc2C(=O)N1O

In the case of `C#CCNC(=O)c1ccc2c(c1)C(=O)N(O)C2=O`, the inhibition result in the assay with microRNA 21 [1] and with Pre-miRNA-29b was “inactive” in each case.

The IC50 is the concentration needed to halve the response being measured. `C[C@H](NC(=O)[C@H](CS)NC(=O)[C@H](C)NC(=O)[C@H](C)NC(=O)[C@H](CS)NC(=O)[C@@H](NC(=O)[C@@H](NC(=O)[C@H](C)NC(=O)CNC(=O)[C@H](C)NC(=O)CNC(=O)[C@@H](NC(=O)[C@H](C)NC(=O)[C@H](CS)Nn1cc(CNC(=O)c2ccc3c(c2)C(=O)N(O)C3=O)nn1)[C@@H](C)O)[C@@H](C)O)[C@@H](C)O)C(=O)O` (H-[X1](X2)ATGAGATTCAACA-OH): the IC50 on microRNA 21 [2] is 4.3 µM. Also, the inhibition entry with microRNA 21 [3] and with microRNA 21 [5] was “Active” in each case. The result with microRNA 21 [4] was Active.

On to `C[C@H](NC(=O)[C@H](CS)NC(=O)[C@H](C)NC(=O)[C@H](C)NC(=O)[C@H](CS)NC(=O)[C@@H](NC(=O)[C@@H](NC(=O)[C@H](C)NC(=O)CNC(=O)[C@H](C)NC(=O)CNn1cc(COc2ccc3c(c2)C(=O)N(O)C(=O)C3)nn1)[C@@H](C)O)[C@@H](C)O)C(=O)O` (H-[X3]AGATTCAACA-OH), for which, at microRNA 21 [2], the IC50 was found to be 0.5 µM and the inhibition entry is “Dose-dependent effect”.

Regarding `C[C@H](NC(=O)[C@H](CS)NC(=O)[C@H](C)NC(=O)[C@H](C)NC(=O)[C@H](CS)NC(=O)[C@@H](NC(=O)[C@@H](NC(=O)[C@H](C)NC(=O)CNC(=O)[C@H](C)NC(=O)CNC(=O)[C@@H](Nn1cc(CNC(=O)c2ccc3c(c2)C(=O)N(O)C3=O)nn1)[C@@H](C)O)[C@@H](C)O)[C@@H](C)O)C(=O)O` (H-[X4](X2)GAGATTCAACA-OH), the inhibition entry in the assay on microRNA 21 [3] was “Active”.

For the compound `C[C@H](NC(=O)[C@H](CS)NC(=O)[C@H](C)NC(=O)[C@H](C)NC(=O)[C@H](CS)NC(=O)[C@@H](NC(=O)[C@@H](NC(=O)[C@H](C)NC(=O)CNC(=O)[C@H](C)Nn1cc(CNC(=O)c2ccc3c(c2)C(=O)N(O)C3=O)nn1)[C@@H](C)O)[C@@H](C)O)C(=O)O` (H-[X5](X2)GATTCAACA-OH), the inhibition entry with microRNA 21 [3] was “Active”.

Consider `C[C@H](NC(=O)[C@H](CS)NC(=O)[C@H](C)NC(=O)[C@H](C)NC(=O)[C@H](CS)NC(=O)[C@@H](NC(=O)[C@@H](NC(=O)[C@H](C)NC(=O)CNC(=O)[C@H](C)NC(=O)CNC(=O)[C@@H](NC(=O)[C@H](C)NC(=O)[C@H](CS)Nn1cc(COc2ccc3c(c2)C(=O)N(O)C(=O)C3)nn1)[C@@H](C)O)[C@@H](C)O)[C@@H](C)O)C(=O)O` (H-[X6]ATGAGATTCAACA-OH), for which the IC50 on microRNA 21 [2] worked out at 3.3 µM.

Take `C[C@H](NC(=O)[C@H](CS)NC(=O)[C@H](C)NC(=O)[C@H](C)NC(=O)[C@H](CS)NC(=O)[C@@H](NC(=O)[C@@H](NC(=O)[C@H](C)NC(=O)CNC(=O)[C@H](C)NC(=O)CNC(=O)[C@@H](NC(=O)[C@H](C)NC(=O)[C@H](CS)Nn1cc(CCCC(=O)NCCOCCOCCNC(=O)c2ccc3c(c2)C(=O)N(O)C3=O)nn1)[C@@H](C)O)[C@@H](C)O)[C@@H](C)O)C(=O)O` (H-[X7](X8)ATGAGATTCAACA-OH): the inhibition entry in the assay on microRNA 21 [6] was “inactive”.

Values taken from ChEMBL document CHEMBL4622833, “Bifunctional small molecule-oligonucleotide hybrid as microRNA inhibitor” (Bioorg Med Chem, 2020).
